Measurements from US9920010B2, “CXCR7 receptor modulators” (IDORSIA PHARMACEUTICALS LTD, priority 2013, dated 2018).

Biological target: T1, CXCR7 (Homo sapiens, UniProt P25106)
T1 construct: host or cells: CHO-K1 (PathHunter CHO-K1 CXCR7 b-arrestin cell line, stably transfected)
Test: PathHunter CHO-K1 CXCR7 b-arrestin recruitment assay (CXCR7 agonistic activity)
Type: cell-based
Conditions: PathHunter CHO-K1 CXCR7 b-arrestin cell line
Description: The CXCl12 receptor and CXCR7 agonistic activities of the compounds of formula (I) are determined in accordance with the following experimental method.
The assay is using the PathHunter™ CHO-K1 CXCR7 b-arrestin cell line from DiscoverX. The system is based on the Enzyme Fragment Complementation Technology. Two complementing fragments of the b-galactosidase enzyme are expressed within stably transfected cells. The larger portion of b-gal, termed EA for Enzyme Acceptor, is fused to the C-terminus of b-arrestin 2. The smaller fragment, termed ProLink™ tag, is fused to CXCR7 at the C-terminus. Upon activation, b-arrestin is recruited which forces the interaction of ProLink and EA, allowing complementation of the two fragments of b-gal and the formation of a functional enzyme which is capable of hydrolysing the substrate and generating a chemiluminescent signal.
CHO-K1 CXCR7 b-arrestin cells are detached from culture dishes with a cell dissociation buffer (Invitrogen, #13151-014) and collected in growing medium (F12 HAMS 90% (v/v)/FCS 10% (v/v), Penicillin/streptomycin 1% (v/v)). 5000 cells per well (in 20 μl) are seeded in a 384 well plate (white-walled, clear bottom; BD Falcon #353274). The plate is incubated at 37° C./5% CO2 for 24 hours. Medium is then replaced by 20 μl OPTIMEM (Invitrogen #31985) for 3 to 4 hours. Test compounds are dissolved at 10 mM in DMSO and serially diluted in DMSO to 200× of the final concentration for dose response curves. Compounds are then diluted 1:33.3 in HBSS1×. 5 μl/well of HBSS1×/20 mM HEPES/0.2% BSA are added to the assay plate followed by addition of 5 μl/well of diluted compounds. CXCL12 (Peprotech #300-28A) may be used as a reference agonist. The plate is incubated for 90 minutes at 37° C. 12 μl of detection reagent (Path Hunter Detection Kit, DiscoveRx, #93-0001) is transferred to the assay plate and to the plate is incubated for 1 hour at room temperature. Luminescent signal is read in a microplate reader (FLUOstar Optima, bmg). The calculated EC50 values may fluctuate depending on the daily cellular assay performance. Fluctuations of this kind are known to those skilled in the art. Average EC50 values from several measurements are given as geometric mean values.

T1 sequence (P25106 whole entry): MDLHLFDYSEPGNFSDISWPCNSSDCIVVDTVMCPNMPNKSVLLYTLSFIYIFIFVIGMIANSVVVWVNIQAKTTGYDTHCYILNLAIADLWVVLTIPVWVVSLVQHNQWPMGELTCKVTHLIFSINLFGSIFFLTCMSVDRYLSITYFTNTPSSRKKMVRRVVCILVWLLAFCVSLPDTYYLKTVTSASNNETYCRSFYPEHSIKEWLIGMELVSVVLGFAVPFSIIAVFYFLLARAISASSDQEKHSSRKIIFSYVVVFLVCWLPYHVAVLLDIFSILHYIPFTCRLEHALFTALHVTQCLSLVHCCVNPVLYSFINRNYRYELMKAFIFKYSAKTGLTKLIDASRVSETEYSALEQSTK
T1 sequence (P32121 whole entry partner): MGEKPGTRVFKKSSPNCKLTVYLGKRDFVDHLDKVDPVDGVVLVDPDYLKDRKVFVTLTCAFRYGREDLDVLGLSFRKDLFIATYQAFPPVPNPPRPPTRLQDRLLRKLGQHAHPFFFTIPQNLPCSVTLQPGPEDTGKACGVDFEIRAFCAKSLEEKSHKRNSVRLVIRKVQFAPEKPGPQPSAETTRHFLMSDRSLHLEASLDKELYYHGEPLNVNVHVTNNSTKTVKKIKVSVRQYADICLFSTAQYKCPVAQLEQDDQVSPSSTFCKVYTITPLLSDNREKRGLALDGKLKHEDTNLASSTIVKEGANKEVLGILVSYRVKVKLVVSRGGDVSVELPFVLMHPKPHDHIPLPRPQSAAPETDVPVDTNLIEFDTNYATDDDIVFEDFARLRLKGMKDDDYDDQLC

| EC50 [nM] | Structure (SMILES) |
| --- | --- |
| 72 | CCN1CCc2c(CCC(=O)N(Cc3ccccc3C(F)(F)F)C3CCN(C)CC3)cccc2C1 [compound 159] |
| 119 | COCCN1CCc2c(/C=C/C(=O)N(CCN3CCC(F)(F)CC3)Cc3ncccc3C(F)(F)F)cccc2C1 [Example 322, (E)-N-[2-(4,4-Difluoro-piperidin-1-yl)-ethyl]-3-[2-(2-methoxy-ethyl)-1,2,3,4-tetrahydro-isoquinolin-5-yl]-N-(3-trifluoromethyl-pyridin-2-ylmethyl)-acrylamide] |
| 182 | COCCN1CCc2c(/C=C/C(=O)N(Cc3ccccc3C(F)(F)F)CC(C)(C)O)cccc2C1 [Example 323, (E)-N-(2-Hydroxy-2-methyl-propyl)-3-[2-(2-methoxy-ethyl)-1,2,3,4-tetrahydro-isoquinolin-5-yl]-N-(2-trifluoromethyl-benzyl)-acrylamide] |
| 4 | CC(C1CC1)N1CCc2c(cccc2NCC(=O)N(CCN(C)C)Cc2ccccc2C(F)(F)F)C1 (stereo not shown) [Example 357, 2-[2-(1-Cyclopropyl-ethyl)-1,2,3,4-tetrahydro-isoquinolin-5-ylamino]-N-(2-dimethylamino-ethyl)-N-(2-trifluoromethyl-benzyl)-acetamide] |
| 244 | COCCN1CCc2c(/C=C/C(=O)N(Cc3ccccc3C(F)(F)F)CC(O)COC)cccc2C1 (stereo not shown) [Example 321, (E)-N-(2-Hydroxy-3-methoxy-propyl)-3-[2-(2-methoxy-ethyl}-1,2,3,4-tetrahydro-isoquinolin-5-yl]-N-(2-trifluoromethyl-benzyl)-acrylamide] |
| 137 | O=C(CNc1cccc2c1CCN(CC1CC1)C2)N(CCc1ccc(F)cc1)Cc1ccccc1 [Example 75, N-Benzyl-2-(2-cyclopropylmethyl-1,2,3,4-tetrahydro-isoquinolin-5-ylamino)-N-[2-(4-fluoro-phenyl)-ethyl]-acetamide] |
| 28 | O=C(CNc1cccc2c1CN(CC1CC1)CC2)N(CCN1CCCC(F)(F)C1)Cc1ncccc1C(F)(F)F [compound 480, 2-(2-Cyclopropylmethyl-1,2,3,4-tetrahydro-isoquinolin-8-ylamino)-N-[2-(3,3-difluoro-piperidin-1-yl)-ethyl]-N-(3-trifluoromethyl-pyridin-2-ylmethyl)-acetamide] |
| 3 | CC(C)N(CCN(Cc1ccccc1C(F)(F)F)C(=O)CNc1cccc2c1CCN(CC1CC1)C2)C(C)C [Example 219, 2-(2-Cyclopropylmethyl-1,2,3,4-tetrahydro-isoquinolin-5-ylamino)-N-(2-diisopropylamino-ethyl)-N-(2-trifluoromethyl-benzyl)-acetamide] |
| 11 | COCC(C)N1CCc2c(cccc2NCC(=O)N(CCN(C)C)Cc2ccccc2C(F)(F)F)C1 (racemic) [Example 354, rac-N-(2-Dimethylamino-ethyl)-2-[2-(2-methoxy-1-methyl-ethyl)-1,2,3,4-tetrahydro-isoquinolin-5-ylamino]-N-(2-trifluoromethyl-benzyl)-acetamide] |
| 14 | CN(C)CCN(Cc1ccccc1)C(=O)CNc1cccc2c1CCN(CC1CC1)C2 [compound 110, N-Benzyl-2-(2-cyclopropylmethyl-1,2,3,4-tetrahydro-isoquinolin-5-ylamino)-N-(2-dimethylamino-ethyl)-acetamide] |
| 92 | C[C@H](Nc1cccc2c1CCN(CC1CC1)C2)C(=O)N(CCN(C)C)Cc1ccccc1C(F)(F)F [Example 291, (S)-2-(2-Cyclopropylmethyl-1,2,3,4-tetrahydro-isoquinolin-5-ylamino)-N-(2-dimethylamino-ethyl)-N-(2-trifluoromethyl-benzyl)-propionamide] |
| 270 | CN(C)CCN(Cc1ccccc1)C(=O)CNc1cccc2c1C(=O)N(C)CC2 [compound 184] |

| Structure (SMILES) | EC50 [nM] |
| --- | --- |
| CN(C)CCN(Cc1ccccc1)C(=O)COc1cccc2c1CCN(C(=O)OC(C)(C)C)C2 [Example 101, 5-{[Benzyl-(2-dimethylamino-ethyl)-carbamoyl]-methoxy}-3,4-dihydro-1H-isoquinoline-2-carboxylic acid tert-butyl ester] | 148 |
